# How the values were obtained:
# Test in all cases: β-arrestin GPCR screen (PathHunter/GPCRmax), antagonist mode
# [1] = target: 168 GPCRs (Homo sapiens, UniProt P41587); conditions: GPCR VIPR2; Antagonist mode; 10 uM
# [2] = target: 168 GPCRs (Homo sapiens, UniProt Q8TDS5); conditions: GPCR OXER1; Antagonist mode; 10 uM
# [3] = target: 168 GPCRs (Homo sapiens, UniProt P25090); conditions: GPCR FPRL1; Antagonist mode; 10 uM
# [4] = target: 168 GPCRs (Homo sapiens, UniProt Q9NSD7); conditions: GPCR RXFP3; Antagonist mode; 10 uM
# 168 GPCRs (Homo sapiens, UniProt Q9NSD7), sequence (Q9NSD7 whole entry): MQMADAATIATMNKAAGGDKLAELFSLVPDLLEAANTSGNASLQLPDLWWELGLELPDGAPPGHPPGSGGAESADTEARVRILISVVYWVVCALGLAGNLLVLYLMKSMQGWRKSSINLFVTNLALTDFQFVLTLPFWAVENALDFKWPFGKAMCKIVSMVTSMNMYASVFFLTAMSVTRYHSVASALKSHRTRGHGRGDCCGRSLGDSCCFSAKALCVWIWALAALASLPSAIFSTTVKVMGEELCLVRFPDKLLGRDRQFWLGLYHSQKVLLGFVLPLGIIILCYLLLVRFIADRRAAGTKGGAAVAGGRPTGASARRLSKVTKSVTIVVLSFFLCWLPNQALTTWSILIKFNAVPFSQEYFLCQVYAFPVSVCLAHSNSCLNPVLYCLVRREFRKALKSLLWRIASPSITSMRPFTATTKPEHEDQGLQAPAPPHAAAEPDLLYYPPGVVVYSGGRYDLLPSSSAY
# [5] = target: 168 GPCRs (Homo sapiens, UniProt Q99500); conditions: GPCR EDG3; Antagonist mode; 10 uM
# 168 GPCRs (Homo sapiens, UniProt Q99500), sequence (Q99500 whole entry): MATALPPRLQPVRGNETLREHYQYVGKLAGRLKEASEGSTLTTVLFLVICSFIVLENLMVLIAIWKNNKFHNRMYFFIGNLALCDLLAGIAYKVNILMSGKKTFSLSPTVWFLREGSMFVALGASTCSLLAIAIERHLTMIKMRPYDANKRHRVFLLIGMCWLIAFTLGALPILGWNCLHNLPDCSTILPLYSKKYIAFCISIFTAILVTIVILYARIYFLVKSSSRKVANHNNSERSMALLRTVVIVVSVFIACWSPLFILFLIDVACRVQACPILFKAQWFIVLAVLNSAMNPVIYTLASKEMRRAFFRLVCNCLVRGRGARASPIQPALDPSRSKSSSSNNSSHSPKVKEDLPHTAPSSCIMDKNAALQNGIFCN
# [6] = target: 168 GPCRs (Homo sapiens, UniProt P32249); conditions: GPCR EBI2; Antagonist mode; 10 uM
# [7] = target: 168 GPCRs (Homo sapiens, UniProt P41231); conditions: GPCR P2RY2; Antagonist mode; 10 uM
# 168 GPCRs (Homo sapiens, UniProt P41231), sequence (P41231 whole entry): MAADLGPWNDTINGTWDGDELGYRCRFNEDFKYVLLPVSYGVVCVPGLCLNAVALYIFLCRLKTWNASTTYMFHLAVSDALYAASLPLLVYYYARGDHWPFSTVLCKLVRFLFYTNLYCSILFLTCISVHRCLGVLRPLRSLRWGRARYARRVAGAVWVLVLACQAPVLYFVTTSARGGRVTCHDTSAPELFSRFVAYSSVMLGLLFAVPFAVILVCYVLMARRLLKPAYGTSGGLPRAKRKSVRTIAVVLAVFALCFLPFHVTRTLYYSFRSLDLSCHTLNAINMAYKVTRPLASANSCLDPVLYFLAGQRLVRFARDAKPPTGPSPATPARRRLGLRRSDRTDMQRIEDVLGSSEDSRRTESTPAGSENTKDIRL
# [8] = target: 168 GPCRs (Homo sapiens, UniProt O95838); conditions: GLP2R; Antagonist; 1 uM
# [9] = target: 168 GPCRs (Homo sapiens, UniProt P29371); conditions: GPCR TACR3; Antagonist mode; 10 uM
# [10] = target: 168 GPCRs (Homo sapiens, UniProt Q96RI0); conditions: F2RL3; Antagonist; 1 uM
# 168 GPCRs (Homo sapiens, UniProt Q96RI0), sequence (Q96RI0 18-385): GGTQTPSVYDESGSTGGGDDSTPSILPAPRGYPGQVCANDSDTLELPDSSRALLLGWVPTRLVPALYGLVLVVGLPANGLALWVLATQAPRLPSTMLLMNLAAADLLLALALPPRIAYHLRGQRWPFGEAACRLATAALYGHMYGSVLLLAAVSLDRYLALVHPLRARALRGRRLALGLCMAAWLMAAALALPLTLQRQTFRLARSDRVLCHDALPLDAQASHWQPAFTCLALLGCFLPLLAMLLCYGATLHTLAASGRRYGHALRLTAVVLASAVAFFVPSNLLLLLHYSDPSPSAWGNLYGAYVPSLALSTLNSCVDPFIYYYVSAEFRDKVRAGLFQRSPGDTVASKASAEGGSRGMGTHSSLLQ
# [11] = target: 168 GPCRs (Homo sapiens, UniProt P21918); conditions: DRD5; Antagonist; 1 uM
# [12] = target: 168 GPCRs (Homo sapiens, UniProt Q8NFJ6); conditions: GPCR PROKR2; Antagonist mode; 10 uM
# 168 GPCRs (Homo sapiens, UniProt Q8NFJ6), sequence (Q8NFJ6 whole entry): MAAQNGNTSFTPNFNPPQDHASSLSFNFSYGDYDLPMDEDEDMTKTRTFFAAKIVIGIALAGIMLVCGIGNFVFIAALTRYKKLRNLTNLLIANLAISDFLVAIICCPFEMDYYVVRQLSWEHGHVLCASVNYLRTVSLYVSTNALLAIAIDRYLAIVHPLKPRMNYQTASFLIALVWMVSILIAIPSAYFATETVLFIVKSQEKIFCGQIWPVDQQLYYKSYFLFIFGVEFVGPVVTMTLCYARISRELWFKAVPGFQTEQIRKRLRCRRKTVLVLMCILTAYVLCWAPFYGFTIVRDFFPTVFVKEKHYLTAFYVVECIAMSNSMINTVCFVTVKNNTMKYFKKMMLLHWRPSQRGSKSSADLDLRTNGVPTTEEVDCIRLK
# [13] = target: 168 GPCRs (Homo sapiens, UniProt Q8TCW9); conditions: PROKR1; Antagonist; 1 uM
# [14] = target: 168 GPCRs (Homo sapiens, UniProt P55085); conditions: GPCR F2RL1; Antagonist mode; 10 uM
# 168 GPCRs (Homo sapiens, UniProt P55085), sequence (P55085 26-397): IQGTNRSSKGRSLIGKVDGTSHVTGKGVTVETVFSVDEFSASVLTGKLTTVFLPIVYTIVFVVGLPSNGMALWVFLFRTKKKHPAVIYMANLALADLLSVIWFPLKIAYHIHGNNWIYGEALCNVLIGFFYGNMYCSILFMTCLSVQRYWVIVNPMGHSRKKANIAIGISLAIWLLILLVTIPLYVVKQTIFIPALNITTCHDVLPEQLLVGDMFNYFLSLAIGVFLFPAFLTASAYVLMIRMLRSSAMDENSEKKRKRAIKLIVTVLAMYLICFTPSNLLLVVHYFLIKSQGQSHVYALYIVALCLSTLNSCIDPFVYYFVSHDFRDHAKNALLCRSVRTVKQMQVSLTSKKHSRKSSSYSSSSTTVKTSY
# [15] = target: 168 GPCRs (Homo sapiens, UniProt P41968); conditions: GPCR MC3R; Antagonist mode; 10 uM
# 168 GPCRs (Homo sapiens, UniProt P41968), sequence (P41968 whole entry): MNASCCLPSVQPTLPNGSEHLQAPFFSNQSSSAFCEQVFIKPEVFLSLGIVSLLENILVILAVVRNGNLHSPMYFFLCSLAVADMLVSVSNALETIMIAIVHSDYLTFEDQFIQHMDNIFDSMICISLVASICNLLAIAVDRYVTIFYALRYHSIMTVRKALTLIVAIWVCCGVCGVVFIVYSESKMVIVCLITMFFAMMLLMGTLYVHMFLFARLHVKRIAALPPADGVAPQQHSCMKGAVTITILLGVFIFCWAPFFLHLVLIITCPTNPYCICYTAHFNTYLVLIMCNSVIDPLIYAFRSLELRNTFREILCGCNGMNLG
# [16] = target: 168 GPCRs (Homo sapiens, UniProt P21462); conditions: FPR1; Antagonist; 1 uM
# [17] = target: 168 GPCRs (Homo sapiens, UniProt P47211); conditions: GPCR GALR1; Antagonist mode; 10 uM
# 168 GPCRs (Homo sapiens, UniProt P47211), sequence (P47211 whole entry): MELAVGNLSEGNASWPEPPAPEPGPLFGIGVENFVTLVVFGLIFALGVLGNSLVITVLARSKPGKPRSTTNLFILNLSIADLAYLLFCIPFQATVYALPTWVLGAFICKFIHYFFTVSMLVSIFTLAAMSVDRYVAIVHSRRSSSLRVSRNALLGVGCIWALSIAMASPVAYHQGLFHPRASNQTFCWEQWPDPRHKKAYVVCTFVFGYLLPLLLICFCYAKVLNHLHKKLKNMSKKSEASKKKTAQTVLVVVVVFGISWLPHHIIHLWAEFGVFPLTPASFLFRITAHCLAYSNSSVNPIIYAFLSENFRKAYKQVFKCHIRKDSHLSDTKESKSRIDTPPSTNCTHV
# [18] = target: 168 GPCRs (Homo sapiens, UniProt Q01726); conditions: GPCR MC1R; Antagonist mode; 10 uM
# [19] = target: 168 GPCRs (Homo sapiens, UniProt Q969F8); conditions: KISS1R; Antagonist; 1 uM
# 168 GPCRs (Homo sapiens, UniProt Q969F8), sequence (Q969F8 whole entry): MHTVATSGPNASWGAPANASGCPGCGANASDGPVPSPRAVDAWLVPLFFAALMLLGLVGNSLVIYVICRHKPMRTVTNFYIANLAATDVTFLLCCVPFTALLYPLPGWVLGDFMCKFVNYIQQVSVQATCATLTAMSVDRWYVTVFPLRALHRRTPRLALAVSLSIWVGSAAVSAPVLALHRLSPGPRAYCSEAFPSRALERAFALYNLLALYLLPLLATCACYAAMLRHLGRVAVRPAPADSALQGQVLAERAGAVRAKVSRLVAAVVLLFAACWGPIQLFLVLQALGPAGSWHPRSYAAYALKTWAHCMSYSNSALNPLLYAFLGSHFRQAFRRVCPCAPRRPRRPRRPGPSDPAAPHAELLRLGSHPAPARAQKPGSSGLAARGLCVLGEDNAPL
# [20] = target: 168 GPCRs (Homo sapiens, UniProt P35367); conditions: GPCR HRH1; Antagonist mode; 10 uM
# [21] = target: 168 GPCRs (Homo sapiens, UniProt P08172); conditions: CHRM2; Antagonist; 1 uM
# 168 GPCRs (Homo sapiens, UniProt P08172), sequence (P08172 whole entry): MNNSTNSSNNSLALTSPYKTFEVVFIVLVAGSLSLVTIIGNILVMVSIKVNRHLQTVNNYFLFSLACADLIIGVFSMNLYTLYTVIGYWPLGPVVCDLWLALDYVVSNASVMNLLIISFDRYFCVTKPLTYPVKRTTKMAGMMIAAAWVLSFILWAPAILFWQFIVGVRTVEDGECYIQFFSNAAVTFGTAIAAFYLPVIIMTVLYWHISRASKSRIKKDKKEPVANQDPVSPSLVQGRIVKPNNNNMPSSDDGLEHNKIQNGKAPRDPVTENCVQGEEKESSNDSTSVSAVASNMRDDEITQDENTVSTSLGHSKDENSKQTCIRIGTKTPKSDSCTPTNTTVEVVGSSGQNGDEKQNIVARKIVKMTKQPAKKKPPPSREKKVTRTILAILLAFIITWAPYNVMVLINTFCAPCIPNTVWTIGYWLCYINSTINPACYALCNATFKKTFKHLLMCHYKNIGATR
# [22] = target: 168 GPCRs (Homo sapiens, UniProt P50391); conditions: PPYR1; Antagonist; 1 uM
# [23] = target: 168 GPCRs (Homo sapiens, UniProt P41586); conditions: ADCYAP1R1; Antagonist; 1 uM
# [24] = target: 168 GPCRs (Homo sapiens, UniProt P43115)
# 168 GPCRs (Homo sapiens, UniProt P43115), sequence (P43115 whole entry): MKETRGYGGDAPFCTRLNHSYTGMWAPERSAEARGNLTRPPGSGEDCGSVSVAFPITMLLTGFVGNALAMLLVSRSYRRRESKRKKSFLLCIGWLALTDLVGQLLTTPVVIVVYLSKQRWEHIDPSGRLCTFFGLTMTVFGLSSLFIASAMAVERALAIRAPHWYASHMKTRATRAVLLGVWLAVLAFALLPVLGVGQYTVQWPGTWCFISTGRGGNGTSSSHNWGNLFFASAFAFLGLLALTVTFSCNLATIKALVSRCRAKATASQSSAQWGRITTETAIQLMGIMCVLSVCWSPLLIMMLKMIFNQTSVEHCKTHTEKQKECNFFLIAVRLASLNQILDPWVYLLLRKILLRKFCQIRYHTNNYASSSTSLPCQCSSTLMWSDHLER
# [25] = target: 168 GPCRs (Homo sapiens, UniProt Q99705); conditions: GPCR MCHR1; Antagonist mode; 10 uM
# 168 GPCRs (Homo sapiens, UniProt P41587), sequence (P41587 24-438): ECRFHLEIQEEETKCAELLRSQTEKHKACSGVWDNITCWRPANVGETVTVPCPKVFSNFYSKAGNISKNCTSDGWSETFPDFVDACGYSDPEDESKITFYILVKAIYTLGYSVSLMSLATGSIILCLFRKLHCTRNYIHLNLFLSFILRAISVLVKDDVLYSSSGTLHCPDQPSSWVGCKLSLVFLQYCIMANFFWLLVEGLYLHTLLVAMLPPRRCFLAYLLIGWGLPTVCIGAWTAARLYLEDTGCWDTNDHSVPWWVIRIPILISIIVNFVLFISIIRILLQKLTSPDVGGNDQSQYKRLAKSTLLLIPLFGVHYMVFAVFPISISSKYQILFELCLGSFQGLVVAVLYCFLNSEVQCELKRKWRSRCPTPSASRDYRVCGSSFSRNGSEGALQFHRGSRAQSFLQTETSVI
smiles,measurement,setting,value
"CNC(C)C(=O)c1ccc2c(c1)OCO2 (centres unmarked) [methylone, 3,4-methylenedioxy-N-methylcathinone]",activity at 10 µM,[1],~-2%
same,activity at 10 µM,[2],~7%
same,activity at 10 µM,[3],~3%
same,activity at 10 µM,[4],~32%
same,activity at 10 µM,[5],-13.6%
same,activity at 10 µM,[6],-2.6%
same,activity at 10 µM,[7],~1%
same,activity at 1 µM,[8],6.4%
same,activity at 10 µM,[9],~-14%
same,activity at 1 µM,[10],~-11%
same,activity at 1 µM,[11],-6.9%
same,activity at 10 µM,[12],-6.8%
same,activity at 1 µM,[13],6.7%
same,activity at 10 µM,[14],-16.2%
same,activity at 10 µM,[15],-0.3%
same,activity at 1 µM,[16],~-4%
same,activity at 10 µM,[17],8.8%
same,activity at 10 µM,[18],~15%
same,activity at 1 µM,[19],25.7%
same,activity at 10 µM,[20],-2.2%
same,activity at 1 µM,[21],-18.9%
same,activity at 1 µM,[22],~9%
same,activity at 1 µM,[23],~13%
same,activity at 10 µM,"[24]; GPCR PTGER3, Antagonist mode, 10 uM",-5.7%
same,activity at 1 µM,"[24]; PTGER3, Antagonist, 1 uM",8.2%
same,activity at 10 µM,[25],-38.3%
